Where “and” joins values, the source holds several entries; their conditions need not be identical. Identical values can stand only once.
Tests used:
NCI-H358 (K-Ras G12C) = test: CellTiter-Glo cell viability assay, NCI-H358; format: cell-based, human; conditions: Homo sapiens, NCI-H358, 120 h, 5-day treatment; read-out: H358 Cell Viability assay data (K-Ras G12C, IC50)
Summary of the method: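 After direct compound addition, plates were incubated to day 5 and equilibrated at room temperature for about 30 minutes before CellTiter-Glo reading. Values derive from luminescence relative to the DMSO mean, fitted with a four-parameter logistic model.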

KRAS G13C = KRAS G13C (Homo sapiens (Human), UniProt P01116+P62937, G13C); test: Ras-Raf disruption/FRET/MOA assay (BRAF RBD, Cyclophilin A); format: biochemical; conditions: read-out: KRAS G13C FRET IC50
Summary of the method: (§1)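 Measured: compound-facilitated Cyclophilin A:Ras complex blocking RAF RBD binding. Conditions: 12.5 nM Ras-GMPPNP, 50 nM BRAF RBD, 25 μM CypA, 3 h plus 1.5 h detection. Output: IC50 from TR-FRET ratio.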

KRAS G12C = KRAS G12C (Homo sapiens (Human), UniProt P01116+P62937, G12C); test: as above; format: biochemical; conditions: read-out: KRAS G12C FRET IC50
Summary of the method: as §1

KRAS G13D = KRAS G13D (Homo sapiens (Human), UniProt P01116+P62937, G13D); test: as above; format: biochemical; conditions: read-out: KRAS G13D FRET data IC50
Summary of the method: as §1

KRAS G12D = KRAS G12D (Homo sapiens (Human), UniProt P01116+P62937, G12D); test: as above; format: biochemical; conditions: read-out: KRAS G12D FRET IC50
Summary of the method: as §1

NRAS WT = NRAS WT (Homo sapiens (Human), UniProt P01111+P62937); test: as above; format: biochemical
Summary of the method: (§2)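 TR-FRET read after 1.5 h with 10 nM anti-His Eu-W1024 and 50 nM anti-GST APC, following 3 h at 25 °C of GMPPNP-loaded His6-Ras (12.5 nM), GST-BRAF RBD (50 nM) and Cyclophilin A (25 μM) with compound from 30 μM final, 10 points, 3-fold. IC50 reported; pH 7.3 HEPES, 100 mM NaCl.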

KRAS Q61H = KRAS Q61H (Homo sapiens (Human), UniProt P01116+P62937, Q61H); test: as above; format: biochemical
Summary of the method: as §1

NRAS Q61K = NRAS Q61K (Homo sapiens (Human), UniProt P01111+P62937, Q61K); test: as above; format: biochemical
Summary of the method: as §2

KRAS G12S = KRAS G12S (Homo sapiens (Human), UniProt P01116+P62937, G12S); test: as above; format: biochemical; conditions: read-out: KRAS G12S FRET IC50
Summary of the method: as §1

NRAS G12C = NRAS G12C (Homo sapiens (Human), UniProt P01111+P62937, G12C); test: as above; format: biochemical; conditions: read-out: NRAS G12C FRET data IC50
Summary of the method: as §2

NRAS Q61R = NRAS Q61R (Homo sapiens (Human), UniProt P01111+P62937, Q61R); test: as above; format: biochemical
Summary of the method: as §2

KRAS G12V = KRAS G12V (Homo sapiens (Human), UniProt P01116+P62937, G12V); test: as above; format: biochemical; conditions: read-out: KRAS G12V FRET IC50
Summary of the method: as §1

KRAS WT = KRAS WT (Homo sapiens (Human), UniProt P01116+P62937); test: as above; format: biochemical; conditions: read-out: KRAS WT FRET data IC50
Summary of the method: as §1

[1] = biological target: K-Ras G12C(GMP-PNP) binding to BRAF RBD (Homo sapiens (Human), UniProt P01116+P62937, G12C); test: Disruption of BRAF RBD interaction with K-Ras (FRET / MOA assay), K-Ras G12C; format: biochemical; conditions: read-out: KRAS G12C FRET IC50
Summary of the method: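 Incubation of compound (up to 30 μM final, 3-fold steps) with GMP-PNP-type loaded Ras isoform, cyclophilin A and BRAF RBD ran 3 h at 25° C, followed by 1.5 h with detection antibodies. Disruption appears as a reduced TR-FRET ratio compared with DMSO controls, expressed as IC50.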

[2] = test system: Capan-1 cells (K-Ras G12V); test: CellTiter-Glo cell viability, Capan-1; format: cell-based, human; conditions: Homo sapiens, CAPAN-1, 120 h, K-Ras G12V, 5-day treatment; read-out: Capan-1 Cell Viability IC50
Summary of the method: (§3)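 Endpoint: CellTiter-Glo luminescence on day 5, following ~30 min at room temperature. Data as (sample/mean DMSO)×100, four-parameter logistic fit.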

[3] = test system: NCI-H358 cells (K-Ras G12C); test: CellTiter-Glo cell viability, NCI-H358; format: cell-based, human; conditions: Homo sapiens, NCI-H358, 120 h, K-Ras G12C, 5-day treatment; read-out: H358 Cell Viability IC50
Summary of the method: as §3

Chain of KRAS WT (P01116 other isoform, or with tags, fused parts or gaps): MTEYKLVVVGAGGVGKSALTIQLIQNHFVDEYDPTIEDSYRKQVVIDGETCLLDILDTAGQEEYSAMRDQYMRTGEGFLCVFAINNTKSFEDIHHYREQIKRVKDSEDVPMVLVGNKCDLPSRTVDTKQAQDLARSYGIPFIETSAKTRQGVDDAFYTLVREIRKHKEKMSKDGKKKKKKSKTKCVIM
Chain of KRAS WT (P62937 whole entry): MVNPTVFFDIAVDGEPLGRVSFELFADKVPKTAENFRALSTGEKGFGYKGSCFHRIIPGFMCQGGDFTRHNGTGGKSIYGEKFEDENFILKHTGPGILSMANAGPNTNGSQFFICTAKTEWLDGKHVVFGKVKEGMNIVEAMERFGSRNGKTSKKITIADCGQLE
Chain of KRAS G13C (P01116 other isoform, or with tags, fused parts or gaps G13C): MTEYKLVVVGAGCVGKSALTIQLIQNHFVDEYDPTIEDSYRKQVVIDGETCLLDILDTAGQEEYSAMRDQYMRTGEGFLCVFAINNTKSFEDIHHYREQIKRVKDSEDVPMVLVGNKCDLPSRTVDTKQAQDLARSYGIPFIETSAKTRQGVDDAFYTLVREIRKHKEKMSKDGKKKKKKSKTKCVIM
Chain of KRAS G13C (P62937 whole entry): as the sequence (P62937 whole entry) above
Chain of KRAS Q61H (P01116 other isoform, or with tags, fused parts or gaps Q61H): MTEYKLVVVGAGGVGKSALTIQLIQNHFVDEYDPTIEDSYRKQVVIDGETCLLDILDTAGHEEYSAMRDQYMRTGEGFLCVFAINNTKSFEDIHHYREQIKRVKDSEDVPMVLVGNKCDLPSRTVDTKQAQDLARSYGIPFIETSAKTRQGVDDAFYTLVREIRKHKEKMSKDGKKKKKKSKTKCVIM
Chain of KRAS Q61H (P62937 whole entry): as the sequence (P62937 whole entry) above
Chain of KRAS G12D (P01116 other isoform, or with tags, fused parts or gaps G12D): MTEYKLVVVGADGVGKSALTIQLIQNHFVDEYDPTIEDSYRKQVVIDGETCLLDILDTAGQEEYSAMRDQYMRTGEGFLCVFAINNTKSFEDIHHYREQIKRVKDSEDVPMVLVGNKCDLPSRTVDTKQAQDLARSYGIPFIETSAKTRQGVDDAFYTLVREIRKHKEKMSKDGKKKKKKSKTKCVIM
Chain of KRAS G12D (P62937 whole entry): as the sequence (P62937 whole entry) above
Chain of KRAS G12S (P01116 other isoform, or with tags, fused parts or gaps G12S): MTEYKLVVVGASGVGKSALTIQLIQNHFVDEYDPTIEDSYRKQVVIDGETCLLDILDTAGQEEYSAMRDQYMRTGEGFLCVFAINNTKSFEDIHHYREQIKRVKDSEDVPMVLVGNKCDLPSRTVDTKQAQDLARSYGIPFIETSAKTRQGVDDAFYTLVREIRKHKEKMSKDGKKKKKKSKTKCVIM
Chain of KRAS G12S (P62937 whole entry): as the sequence (P62937 whole entry) above
Chain of NRAS Q61R (P01111 whole entry Q61R): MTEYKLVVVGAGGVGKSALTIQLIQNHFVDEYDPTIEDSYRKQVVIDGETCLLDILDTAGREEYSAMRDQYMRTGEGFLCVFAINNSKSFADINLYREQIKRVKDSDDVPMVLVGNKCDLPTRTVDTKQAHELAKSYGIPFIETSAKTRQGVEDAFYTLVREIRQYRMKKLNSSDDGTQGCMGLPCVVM
Chain of NRAS Q61R (P62937 whole entry): as the sequence (P62937 whole entry) above
Chain of NRAS Q61K (P01111 whole entry Q61K): as the sequence (P01111 whole entry Q61R) above, with R61K counted along it
Chain of NRAS Q61K (P62937 whole entry): as the sequence (P62937 whole entry) above
Chain of KRAS G12C (P01116-2 other isoform, or with tags, fused parts or gaps G12C): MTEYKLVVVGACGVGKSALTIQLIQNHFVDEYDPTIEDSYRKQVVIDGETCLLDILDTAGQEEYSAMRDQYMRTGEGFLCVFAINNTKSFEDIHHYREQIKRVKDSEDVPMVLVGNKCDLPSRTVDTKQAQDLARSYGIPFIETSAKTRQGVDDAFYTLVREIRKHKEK
Chain of KRAS G12C (P62937 whole entry): as the sequence (P62937 whole entry) above
Chain of NRAS G12C (P01111 whole entry G12C): as the sequence (P01111 whole entry Q61R) above, with G12C, R61Q counted along it
Chain of NRAS G12C (P62937 whole entry): as the sequence (P62937 whole entry) above
Chain of KRAS G13D (P01116 other isoform, or with tags, fused parts or gaps G13D): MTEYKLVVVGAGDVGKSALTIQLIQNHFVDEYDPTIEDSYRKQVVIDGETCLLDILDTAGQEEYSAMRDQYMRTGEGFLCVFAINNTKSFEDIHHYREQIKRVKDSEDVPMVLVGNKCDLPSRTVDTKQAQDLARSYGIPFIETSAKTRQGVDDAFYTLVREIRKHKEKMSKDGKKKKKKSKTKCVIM
Chain of KRAS G13D (P62937 whole entry): as the sequence (P62937 whole entry) above
Chain of KRAS G12V (P01116 other isoform, or with tags, fused parts or gaps G12V): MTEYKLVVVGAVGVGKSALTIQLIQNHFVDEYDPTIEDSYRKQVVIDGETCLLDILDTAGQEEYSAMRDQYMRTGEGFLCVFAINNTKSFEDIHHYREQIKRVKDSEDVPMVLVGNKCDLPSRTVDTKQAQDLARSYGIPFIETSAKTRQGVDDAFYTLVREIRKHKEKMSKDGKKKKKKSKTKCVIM
Chain of KRAS G12V (P62937 whole entry): as the sequence (P62937 whole entry) above
Chain of NRAS WT (P01111 whole entry): as the sequence (P01111 whole entry Q61R) above, with R61Q counted along it
Chain of NRAS WT (P62937 whole entry): as the sequence (P62937 whole entry) above
Chain of K-Ras G12C(GMP-PNP) binding to BRAF RBD (P01116 other isoform, or with tags, fused parts or gaps G12C): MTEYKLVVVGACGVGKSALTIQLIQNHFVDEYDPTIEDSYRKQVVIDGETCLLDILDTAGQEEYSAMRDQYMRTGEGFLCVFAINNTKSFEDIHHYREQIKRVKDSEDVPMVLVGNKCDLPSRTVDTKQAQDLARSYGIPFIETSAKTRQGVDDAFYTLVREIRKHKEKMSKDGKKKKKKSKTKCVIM
Chain of K-Ras G12C(GMP-PNP) binding to BRAF RBD (P62937 whole entry, canonical isoform): as the sequence (P62937 whole entry) above

SMILES | IC50 (NCI-H358 (K-Ras G12C)) | IC50 (KRAS G13C) | IC50 (KRAS G12C) | IC50 (KRAS G13D) | IC50 (KRAS G12D) | IC50 (NRAS WT) | IC50 (KRAS Q61H) | IC50 (NRAS Q61K) | IC50 (KRAS G12S) | IC50 (NRAS G12C) | IC50 (NRAS Q61R) | IC50 (KRAS G12V) | IC50 (KRAS WT) | IC50 [1] | IC50 [3] | IC50 [2]
CCn1c(-c2cccnc2[C@H](C)OC)c2c3cc(ccc31)-c1cc(O)cc(c1)C[C@H](NC(=O)C(C)C1CCOCC1)C(=O)N1CCC[C@H](N1)C(=O)OCC(C)(C)C2 (stereo partly shown) [Compound A236] | > 10000 nM | 100 to 1000 nM | 100 to 1000 nM and 1000 to 10000 nM | 100 to 1000 nM and 1000 to 10000 nM | 1000 to 10000 nM and > 10000 nM | 100 to 1000 nM | 10 to 100 nM | 100 to 1000 nM | 100 to 1000 nM and 1000 to 10000 nM | 100 to 1000 nM and 1000 to 10000 nM | 1000 to 10000 nM | 100 to 1000 nM and 1000 to 10000 nM | 100 to 1000 nM and 1000 to 10000 nM | > 10000 nM | – | –
CCn1c(-c2cccnc2[C@H](C)OC)c2c3cc(ccc31)-c1cc(CF)cc(c1)C[C@H](NC(=O)[C@H](C(C)C)N(C)C(=O)[C@@H]1OCC[C@@H]1c1ccccc1)C(=O)N1CCC[C@H](N1)C(=O)OCC(C)(C)C2 [Compound A509] | – | 10 to 100 nM | 10 to 100 nM | 100 to 1000 nM | 100 to 1000 nM | 100 to 1000 nM | 10 to 100 nM | 100 to 1000 nM | 100 to 1000 nM | 10 to 100 nM | 100 to 1000 nM | 100 to 1000 nM | 100 to 1000 nM | – | 10 to 100 nM | 10 to 100 nM
CCn1c(-c2cccnc2[C@H](C)OC)c2c3cc(ccc31)-c1cc(O)cc(c1)C[C@H](NC(=O)[C@H](C(C)C)N(C)C(=O)[C@H]1C[C@H]1O)C(=O)N1CCC[C@H](N1)C(=O)OCC(C)(C)C2 [Compound A554] | – | 10 to 100 nM | 10 to 100 nM | 100 to 1000 nM | 100 to 1000 nM | 10 to 100 nM | 10 to 100 nM | 100 to 1000 nM | 10 to 100 nM | 10 to 100 nM | 100 to 1000 nM | 10 to 100 nM | 10 to 100 nM | – | 100 to 1000 nM | 1000 to 10000 nM

The next lines start with results.

IC50 (NCI-H358 (K-Ras G12C)) | IC50 (KRAS G13C) | IC50 (KRAS G12C) | IC50 (KRAS G13D) | IC50 (KRAS G12D) | IC50 (NRAS WT) | IC50 (KRAS Q61H) | IC50 (NRAS Q61K) | IC50 (KRAS G12S) | IC50 (NRAS G12C) | IC50 (NRAS Q61R) | IC50 (KRAS G12V) | IC50 (KRAS WT) | IC50 [1] | IC50 [3] | SMILES | IC50 [2]
> 10000 nM | 1000 to 10000 nM | 1000 to 10000 nM | > 10000 nM | > 10000 nM | 1000 to 10000 nM | 100 to 1000 nM | 100 to 1000 nM | 1000 to 10000 nM | 1000 to 10000 nM | 1000 to 10000 nM | 1000 to 10000 nM | 1000 to 10000 nM | > 10000 nM | – | CCn1c(-c2cccnc2[C@H](C)OC)c2c3cc(ccc31)-c1csc(n1)C[C@H](NC(=O)[C@H](C(C)C)N(C)C(=O)N1CCC1C(=O)O)C(=O)N1CCC[C@H](N1)C(=O)OCC(C)(C)C2 (stereo partly shown) [Compound A271] | > 10000 nM
– | 100 to 1000 nM | 100 to 1000 nM | 1000 to 10000 nM | 1000 to 10000 nM | 100 to 1000 nM | 100 to 1000 nM | 100 to 1000 nM | 100 to 1000 nM | 100 to 1000 nM | 100 to 1000 nM | 100 to 1000 nM | 100 to 1000 nM | – | 10 to 100 nM | CCn1c(-c2cccnc2[C@H](C)OC)c2c3cc(ccc31)-c1csc(n1)C[C@H](NC(=O)[C@H](C(C)C)N(C)C(=O)N1CC3(CCOCC3)C1)C(=O)N1CCC[C@H](N1)C(=O)OCC(C)(C)C2 [Compound A521] | 10 to 100 nM
– | 100 to 1000 nM | 100 to 1000 nM | 1000 to 10000 nM | 1000 to 10000 nM | 100 to 1000 nM | 100 to 1000 nM | 100 to 1000 nM | 1000 to 10000 nM | 100 to 1000 nM | 100 to 1000 nM | 100 to 1000 nM | 100 to 1000 nM | – | 10 to 100 nM | CCn1c(-c2cccnc2[C@H](C)OC)c2c3cc(ccc31)-c1csc(n1)C[C@H](NC(=O)[C@H](C(C)C)N(C)C(=O)N1CC(O)(COC)C1)C(=O)N1CCC[C@H](N1)C(=O)OCC(C)(C)C2 [Compound A553] | 100 to 1000 nM

From patent US20250195521A1 (Revolution Medicines, Inc., priority 2020, published 2025)
